Results on 15 compounds are retold here after PubChem BioAssay (NCI).

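Cells were grown in 96-well plates and exposed to each compound for 48 hours at five concentrations; endpoints were interpolated linearly between bracketing concentrations, or set to the highest concentration if not reached. GI50 marks 50% less growth. TGI denotes the concentration required for complete inhibition of growth.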 Where a SMILES comes first, the peptide text is derived from it. The star is where a group is joined. Boc = CC(C)(C)OC(=O)* Some results are limits rather than exact numbers.

Among the test systems are NCI-H460 lung; HT29 colon; OVCAR-5 ovarian; RXF 393 renal; SK-OV-3 ovarian; M14 melanoma; OVCAR-8 ovarian; BT-549 breast; NCI-H226 lung; MDA-N.
Holding throughout (assay): growth of human tumour cells (NCI), 48 h

Take `CCC1=C(C[C@H]2NCCc3cc(OC)c(OC)cc32)C[C@H]2c3cc(OC)c(OC)cc3CCN2C1`: the TGI in the assay on NCI-H460 lung came to 0.134 µM; in the assay with HT29 colon it was 0.182 µM; with OVCAR-5 ovarian, 0.49 µM; in the assay with RXF 393 renal, 0.0698 µM; in the assay with SK-OV-3 ovarian, 0.73 µM; with M14 melanoma, 0.069 µM. This compound also returned a TGI in the assay on OVCAR-8 ovarian of 0.137 µM.
In the case of `Cc1cc2c(=O)c3ccc(Cl)cc3[nH]c2c(C(N)=O)c1C`, the TGI in the assay on NCI-H460 lung, in the assay on HT29 colon, in the assay with OVCAR-5 ovarian, in the assay on SK-OV-3 ovarian, in the assay with M14 melanoma and with OVCAR-8 ovarian was above 100 µM in each case.
As for `O=C1N2CCC[C@H]2CS1(=O)=O`, the TGI in the assay on BT-549 breast amounted to 30.2 µM; in the assay with NCI-H460 lung, 88.1 µM; in the assay on HT29 colon, 75.1 µM; in the assay on NCI-H226 lung, 72.2 µM; in the assay with OVCAR-5 ovarian, 93.7 µM; in the assay on RXF 393 renal, 21.7 µM. Further, the TGI is above 100 µM in the assay with SK-OV-3 ovarian, 31.6 µM in the assay on M14 melanoma and 55.1 µM with OVCAR-8 ovarian.
In the case of `Cc1cc(=O)[nH]c(NNC(C#N)c2ccccc2O)n1` (stereo not drawn), the TGI is above 100 µM with NCI-H460 lung; above 100 µM in the assay with HT29 colon; 84.2 µM in the assay with NCI-H226 lung; above 100 µM with OVCAR-5 ovarian; above 100 µM in the assay on RXF 393 renal; above 100 µM in the assay on SK-OV-3 ovarian. This compound also came in with a TGI in the assay on OVCAR-8 ovarian above 100 µM.
With `C=C(Br)C[N+]12CN3CN(CN(C3)C1)C2`, the TGI with NCI-H460 lung, in the assay on HT29 colon, with NCI-H226 lung, in the assay on OVCAR-5 ovarian, in the assay on MDA-N and in the assay with RXF 393 renal was above 100 µM throughout. In addition, the TGI with SK-OV-3 ovarian, in the assay with M14 melanoma and in the assay on OVCAR-8 ovarian was above 100 µM throughout.
Take `O=C1CC(c2ccsc2)n2cccc21` (stereo not drawn): the TGI in the assay with HT29 colon, with NCI-H226 lung, with OVCAR-5 ovarian, in the assay on RXF 393 renal, in the assay on SK-OV-3 ovarian and in the assay on M14 melanoma was above 100 µM in each case. In the assay on OVCAR-8 ovarian, the TGI was above 100 µM.
As for `O=C(Nc1ccc(-n2cc(-c3ccncc3)c(-c3ccc(O)c(Cl)c3)n2)cc1)c1ccc(Cl)c(C(F)(F)F)c1`, the GI50 in the assay with NCI-H460 lung was 1.94 µM; in the assay with HT29 colon, 1.2 µM; in the assay with NCI-H226 lung, above 50 µM; in the assay on OVCAR-5 ovarian it was 10.1 µM; in the assay on RXF 393 renal, 0.717 µM; in the assay on M14 melanoma, 0.946 µM. The GI50 in the assay on OVCAR-8 ovarian is 1.84 µM. Moreover, the TGI was above 50 µM with NCI-H460 lung; 2.72 µM in the assay with HT29 colon; above 50 µM with NCI-H226 lung; above 50 µM in the assay with OVCAR-5 ovarian; 1.64 µM with RXF 393 renal; 2.08 µM in the assay with M14 melanoma. The compound also registered a TGI in the assay on OVCAR-8 ovarian of 9.58 µM.
For the compound `Cc1cc2nc3ccccc3n2c2ccccc12`, the TGI in the assay on NCI-H460 lung, in the assay with HT29 colon, in the assay with NCI-H226 lung, with OVCAR-5 ovarian, in the assay with MDA-N and with RXF 393 renal was above 10 µM throughout. Moreover, the TGI in the assay with SK-OV-3 ovarian, with M14 melanoma and in the assay on OVCAR-8 ovarian was above 10 µM throughout.
In the case of `COC(=O)C(Cc1c[nH]c2ccccc12)NC(=O)C(Cc1c[nH]c2ccccc12)NC(=O)C(Cc1c[nH]c2ccccc12)NC(=O)C(Cc1c[nH]c2ccccc12)NC(=O)C(Cc1c[nH]c2ccccc12)NC(=O)C(Cc1c[nH]c2ccccc12)NC(=O)C(Cc1c[nH]c2ccccc12)NC(=O)OC(C)(C)C` (stereo not drawn) (Boc-WWWWWWW-OMe; configuration not given here), the TGI in the assay on BT-549 breast, in the assay with NCI-H460 lung, in the assay with HT29 colon, in the assay with NCI-H226 lung, with OVCAR-5 ovarian and in the assay with MDA-N was above 100 µM throughout. In addition, the results for the TGI with M14 melanoma and in the assay with OVCAR-8 ovarian were 58.9 µM and above 100 µM, respectively.
Turning to `Cc1c(OCc2cccc3ccccc23)ccc2c(=O)cc(SCCN3CCOCC3)oc12`, the TGI with BT-549 breast, with NCI-H460 lung, with HT29 colon, with NCI-H226 lung, in the assay on OVCAR-5 ovarian and with RXF 393 renal was above 100 µM in each case. Moreover, the TGI in the assay with M14 melanoma and in the assay on OVCAR-8 ovarian was above 100 µM each time.
`COc1cc2c3c(n(C)c(=O)c2cc1OC)-c1cc2c(cc1/C3=C\CCCCCBr)OCO2`: the TGI was above 100 µM with BT-549 breast; 69.8 µM in the assay with NCI-H460 lung; above 100 µM with HT29 colon; above 100 µM in the assay with OVCAR-5 ovarian; above 100 µM in the assay on MDA-N; 79.3 µM in the assay on SK-OV-3 ovarian. The TGI with M14 melanoma and in the assay on OVCAR-8 ovarian was above 100 µM throughout.
With `O=C(c1ccccc1)c1nnn(Cc2ccccc2Cn2nnc(C(=O)c3ccccc3)c2C(=O)c2ccccc2)c1C(=O)c1ccccc1`, the TGI in the assay on NCI-H460 lung, with HT29 colon, in the assay on NCI-H226 lung, in the assay with OVCAR-5 ovarian, with SK-OV-3 ovarian and in the assay with M14 melanoma was above 100 µM throughout. The TGI in the assay on OVCAR-8 ovarian was above 100 µM.
For the compound `O=C1c2ccncc2C(=O)c2c(O)ccc(O)c21`, the TGI was determined as 29.4 µM in the assay with NCI-H460 lung; 7.74 µM with HT29 colon; 29.4 µM with NCI-H226 lung; 29.9 µM with OVCAR-5 ovarian; 16.8 µM with RXF 393 renal; 19.5 µM in the assay with M14 melanoma. For the same compound, the TGI in the assay on OVCAR-8 ovarian came to 21.4 µM.
For the compound `Cc1cn(C2CC(COCc3ccccc3)N(CCO[Si](C)(C)C(C)(C)C)O2)c(=O)[nH]c1=O` (stereo not drawn), the TGI in the assay with NCI-H460 lung was 35.2 µM; with HT29 colon, 28.7 µM; in the assay on OVCAR-5 ovarian it was 32 µM; with MDA-N, 27.9 µM; with RXF 393 renal, 29 µM; in the assay on SK-OV-3 ovarian, 31.4 µM. Moreover, the TGI with M14 melanoma is 29.5 µM; in the assay on OVCAR-8 ovarian, 28.8 µM.
Take `Oc1ccc(Cl)cc1-c1cc(-c2ccccc2)nc(=S)[nH]1`: the TGI with NCI-H460 lung, in the assay with HT29 colon, with NCI-H226 lung, in the assay on OVCAR-5 ovarian, in the assay on MDA-N and in the assay with RXF 393 renal was above 100 µM in each case. Besides, the TGI in the assay with SK-OV-3 ovarian, in the assay with M14 melanoma and with OVCAR-8 ovarian was above 100 µM each time.
